# In ChEMBL document CHEMBL1201862, “PubChem BioAssay data set” (2004):
#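 Dose response: 5 concentrations. Exposure: 48 h. Format: 96-well plates. Endpoint: linear interpolation; highest concentration if not reached. GI50 is the concentration that inhibits growth by half.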 Active and inactive are the calls of the source. Cut-off read from the data, not from the text of the source: active = GI50 up to about 1.1 µM and inactive = higher.
# Columns and labels:
# Assay in all cases: inhibition of tumour cell growth, NCI panel, 48 h
# SK-OV-3 = tested on: SK-OV-3
# SF-295 = tested on: SF-295
# CCRF-CEM = tested on: CCRF-CEM
# BT-549 = tested on: BT-549
# SF-268 = tested on: SF-268
# OVCAR-3 = tested on: OVCAR-3
# SR = tested on: SR
# KM12 = tested on: KM12
# Malme-3M = tested on: Malme-3M
# HL-60 = tested on: HL-60
# IGROV-1 = tested on: IGROV-1
# SW-620 = tested on: SW-620
# HT-29 = tested on: HT-29
# NCI/ADR-RES = tested on: NCI/ADR-RES
# UACC-62 = tested on: UACC-62
# HCT-116 = tested on: HCT-116
# MCF7 = tested on: MCF7
# MDA-N = tested on: MDA-N
# MOLT-4 = tested on: MOLT-4
# SK-MEL-28 = tested on: SK-MEL-28
SMILES,GI50 (SK-OV-3),GI50 (SF-295),GI50 (CCRF-CEM),GI50 (BT-549),GI50 (SF-268),GI50 (OVCAR-3),GI50 (SR),GI50 (KM12),GI50 (Malme-3M),GI50 (HL-60),GI50 (IGROV-1),GI50 (SW-620),GI50 (HT-29),GI50 (NCI/ADR-RES),GI50 (UACC-62),GI50 (HCT-116),GI50 (MCF7),GI50 (MDA-N),GI50 (MOLT-4),GI50 (SK-MEL-28)
O=[N+]([O-])c1cc(Br)cc2cc(Cl)cnc12,86.9 µM (inactive),70.6 µM (inactive),> 100 µM (inactive),72.4 µM (inactive),89.9 µM (inactive),> 100 µM (inactive),> 100 µM (inactive),> 100 µM (inactive),> 100 µM (inactive),57.8 µM (inactive),10.1 µM (inactive),14.5 µM (inactive),> 100 µM (inactive),> 100 µM (inactive),61.4 µM (inactive),> 100 µM (inactive),35.5 µM (inactive),> 100 µM (inactive),> 100 µM (inactive),> 100 µM (inactive)
O=C(O)c1ccc2c(c1)CC1(C2)Cc2ccccc2C1=O (stereo not given),> 100 µM (inactive),> 100 µM (inactive),> 100 µM (inactive),> 100 µM (inactive),> 100 µM (inactive),> 100 µM (inactive),> 100 µM (inactive),> 100 µM (inactive),> 100 µM (inactive),> 100 µM (inactive),> 100 µM (inactive),> 100 µM (inactive),> 100 µM (inactive),> 100 µM (inactive),> 100 µM (inactive),> 100 µM (inactive),> 100 µM (inactive),> 100 µM (inactive),> 100 µM (inactive),> 100 µM (inactive)
O=C1c2cccnc2-c2nccc3c2c1nc1ccc(Br)cc13,0.145 µM (active),0.0401 µM (active),< 0.01 µM (active),0.0337 µM (active),0.0242 µM (active),0.0207 µM (active),0.012 µM (active),0.0656 µM (active),0.102 µM (active),0.0184 µM (active),0.038 µM (active),0.0404 µM (active),0.282 µM (active),0.034 µM (active),0.0569 µM (active),< 0.0136 µM (active),< 0.0162 µM (active),0.109 µM (active),0.184 µM (active),0.0252 µM (active)
O=C(c1cc2c(c3ccccc13)NC1(CCCCC1)N=C2C(F)(F)F)C(F)(F)F,5.61 µM (inactive),3.2 µM (inactive),3.39 µM (inactive),4.37 µM (inactive),5.85 µM (inactive),2.85 µM (inactive),3.6 µM (inactive),3.42 µM (inactive),5.27 µM (inactive),2.9 µM (inactive),4.93 µM (inactive),4.7 µM (inactive),3.66 µM (inactive),4.53 µM (inactive),3.78 µM (inactive),3.3 µM (inactive),3.63 µM (inactive),3.72 µM (inactive),3.29 µM (inactive),9.1 µM (inactive)
CC(=O)Nc1ccc2c3c(cc(O)c2c1)N(C(=O)CCCCCCC(=O)Nc1ccc2c4c(cc(O)c2c1)N(C(=O)OC(C)(C)C)CC4CCl)CC3CCl (stereo not given),0.0705 µM (active),0.0776 µM (active),< 0.01 µM (active),0.146 µM (active),0.0291 µM (active),0.045 µM (active),< 0.01 µM (active),0.169 µM (active),0.083 µM (active),< 0.0108 µM (active),0.0822 µM (active),0.0968 µM (active),0.155 µM (active),> 35.4 µM (inactive),0.0695 µM (active),0.0408 µM (active),< 0.01 µM (active),0.134 µM (active),< 0.01 µM (active),0.279 µM (active)
COc1cc(COC(=O)N[C@H](C(=O)O)C(C)(C)C)c([N+](=O)[O-])cc1OC,> 100 µM (inactive),> 100 µM (inactive),> 100 µM (inactive),> 100 µM (inactive),> 100 µM (inactive),> 100 µM (inactive),> 100 µM (inactive),> 100 µM (inactive),> 100 µM (inactive),> 10 µM (inactive),> 100 µM (inactive),> 100 µM (inactive),> 100 µM (inactive),> 100 µM (inactive),> 100 µM (inactive),> 100 µM (inactive),> 100 µM (inactive),> 100 µM (inactive),> 100 µM (inactive),> 100 µM (inactive)
O=C(CNc1ccccc1[N+](=O)[O-])Nn1cnc2ccc(S(=O)(=O)Nc3ccccc3[N+](=O)[O-])cc2c1=O,> 100 µM (inactive),> 100 µM (inactive),> 100 µM (inactive),> 100 µM (inactive),> 100 µM (inactive),> 100 µM (inactive),> 100 µM (inactive),> 100 µM (inactive),> 100 µM (inactive),> 100 µM (inactive),78.9 µM (inactive),> 100 µM (inactive),> 100 µM (inactive),> 100 µM (inactive),> 100 µM (inactive),> 100 µM (inactive),> 100 µM (inactive),> 100 µM (inactive),> 100 µM (inactive),> 100 µM (inactive)
CN(CCNC(=O)c1n[nH]c2c1ccc1ccccc12)CCNC(=O)c1n[nH]c2c1ccc1ccccc12,4.79 µM (inactive),1.81 µM (inactive),2.2 µM (inactive),20.2 µM (inactive),2.14 µM (inactive),2.05 µM (inactive),1.78 µM (inactive),2.14 µM (inactive),1.9 µM (inactive),2.75 µM (inactive),1.77 µM (inactive),1.84 µM (inactive),2.01 µM (inactive),> 100 µM (inactive),1.92 µM (inactive),2.13 µM (inactive),1.87 µM (inactive),1.86 µM (inactive),2.77 µM (inactive),1.93 µM (inactive)
CC1OC2OC3C(OCC(O)C3O)OC(=O)[C@]34CCC(C)(C)CC3C3=CCC5[C@@]6(C)C[C@H](O)[C@H](OC7OC(CO)C(O)C(O)C7OC7OCC(OC(=O)CC(C)(O)CC(=O)OC1C(OC1OC(CO)C(O)C(O)C1O)C2O)C(O)C7O)[C@@](C)(CO)C6CC[C@@]5(C)[C@]3(C)CC4 (stereo not given in full),12.4 µM (inactive),4.06 µM (inactive),12.3 µM (inactive),9.27 µM (inactive),10.8 µM (inactive),9.77 µM (inactive),7 µM (inactive),8.53 µM (inactive),7.87 µM (inactive),1.8 µM (inactive),7.53 µM (inactive),9.35 µM (inactive),7.78 µM (inactive),8.32 µM (inactive),9.73 µM (inactive),7.11 µM (inactive),12 µM (inactive),2.44 µM (inactive),10.3 µM (inactive),1.97 µM (inactive)
CN(/N=C(\C(=O)O)c1ccccc1)C1=NCCCN1,> 100 µM (inactive),> 100 µM (inactive),> 100 µM (inactive),> 100 µM (inactive),> 100 µM (inactive),> 100 µM (inactive),> 100 µM (inactive),> 100 µM (inactive),> 100 µM (inactive),> 100 µM (inactive),> 100 µM (inactive),> 100 µM (inactive),> 100 µM (inactive),> 100 µM (inactive),> 100 µM (inactive),> 100 µM (inactive),> 100 µM (inactive),> 100 µM (inactive),> 100 µM (inactive),> 100 µM (inactive)
CCCCc1ccc(-n2sc3ncccc3c2=O)cc1,26.9 µM (inactive),12.6 µM (inactive),2.17 µM (inactive),19.1 µM (inactive),8.75 µM (inactive),10.2 µM (inactive),4.72 µM (inactive),13.4 µM (inactive),3.96 µM (inactive),0.908 µM (active),12.3 µM (inactive),13.9 µM (inactive),16.1 µM (inactive),14.4 µM (inactive),12.4 µM (inactive),11.6 µM (inactive),23.8 µM (inactive),13.9 µM (inactive),4.74 µM (inactive),13.9 µM (inactive)
Nc1ccc2c(c1)nc1n2C(c2c(F)cccc2F)SC1 (stereo not given),> 100 µM (inactive),> 100 µM (inactive),61.2 µM (inactive),> 100 µM (inactive),> 100 µM (inactive),> 100 µM (inactive),> 100 µM (inactive),> 100 µM (inactive),> 100 µM (inactive),48.5 µM (inactive),> 100 µM (inactive),> 100 µM (inactive),> 100 µM (inactive),> 100 µM (inactive),> 100 µM (inactive),> 100 µM (inactive),> 100 µM (inactive),> 100 µM (inactive),26.9 µM (inactive),> 100 µM (inactive)
N#Cc1c(-c2ccc(Cl)cc2)c2c(n(C3OC(CO)C(O)C(O)C3O)c1=S)CCC2 (stereo not given),39.5 µM (inactive),> 10 µM (inactive),16.1 µM (inactive),34.4 µM (inactive),29 µM (inactive),28 µM (inactive),47 µM (inactive),41.9 µM (inactive),26.2 µM (inactive),> 100 µM (inactive),34.1 µM (inactive),20.4 µM (inactive),29 µM (inactive),61.2 µM (inactive),17.1 µM (inactive),34.4 µM (inactive),20.9 µM (inactive),34.5 µM (inactive),10.4 µM (inactive),17.8 µM (inactive)
